US9326513B2, “Fungicidal compositions” (Syngenta Participations AG, priority 2011, dated 2016)

Columns and labels:
Assay type in all cases: in vivo
Details in all cases: foliar, compared to untreated control leaf disks, read-out: disease control
[1] = system: Blumeria graminis f. sp. tritici (Erysiphe graminis f. sp. tritici); assay: Blumeria graminis f. sp. tritici / wheat / leaf disc preventative (powdery mildew on wheat)
Outline: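 Preventative leaf-disc test: compound (200 ppm) was sprayed onto cv. Kanzler wheat segments, which were dusted with conidia from infected plants 1 day after application. After incubation at 20° C and 60% rh, disease control relative to untreated segments was rated 6-8 days after application.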

[2] = system: Puccinia recondita f. sp. tritici; assay: Puccinia recondita f. sp. tritici / wheat / leaf disc preventative (brown rust)
Description: Puccinia recondita f. sp. tritici/Wheat/Leaf Disc Preventative (Brown Rust) Wheat leaf segments cv. Kanzler were placed on agar in multiwell plates (24-well format) and sprayed with the formulated test compound diluted in water. The leaf disks were inoculated with a spore suspension of the fungus 1 day after application.

[3] = system: Puccinia recondita f. sp. tritici; assay: Puccinia recondita f. sp. tritici / wheat / leaf disc curative (brown rust)
Protocol: Puccinia recondita f. sp. tritici/Wheat/Leaf Disc Curative (Brown Rust) Wheat leaf segments cv. Kanzler are placed on agar in multiwell plates (24-well format). The leaf segments are inoculated with a spore suspension of the fungus. Plates were stored in darkness at 19° C. and 75% rh. The formulated test compound diluted in water was applied 1 day after inoculation.

[4] = system: Pyrenophora teres; assay: Pyrenophora teres / barley / leaf disc preventative (net blotch)
Description: Pyrenophora teres/Barley/Leaf Disc Preventative (Net Blotch) Barley leaf segments cv. Hasso were placed on agar in a multiwell plate (24-well format) and sprayed with the formulated test compound diluted in water. The leaf segments were inoculated with a spore suspension of the fungus 2 days after application.

Measured: pest or weed control at 200 ppm

CCN(C)/C=N/c1cc(C)c(OC(C)c2cc(F)cc(F)c2)nc1C (stereo not drawn) [Q.184]
≥ 50%: all assays above

CCN(C)/C=N/c1cc(C)c(O[C@H]2CC[C@@H](C(C)C)CC2)nc1C [Q.186]
≥ 50%: all assays above

CCCN(C)/C=N/c1cc(Br)c(OC(C)c2cc(F)cc(F)c2)nc1C (stereo not drawn) [Q.191]
≥ 50%: all assays above

Cc1nc(OC(C)c2cc(F)cc(F)c2)c(Br)cc1/N=C/N1CCCC1 (stereo not drawn) [Q.193]
≥ 50%: all assays above

CCN(C)/C=N/c1cc(Br)c(OC2Cc3ccc(Br)cc3C2)nc1C (stereo not drawn) [Q.196]
≥ 50%: all assays above

CCN(C)/C=N/c1cc(Br)c(OC2Cc3cc(C)c(C)cc3C2)nc1C [Q.197]
≥ 50%: all assays above

CCN(C)/C=N/c1cc(Br)c(OC(C)Cc2ccccc2)nc1C (stereo not drawn) [Q.198]
≥ 50%: all assays above

CCN(C)/C=N/c1cc(Br)c(OC2Cc3ccc(OC)cc3C2)nc1C (stereo not drawn) [Q.199]
≥ 50%: all assays above

CCN(C)/C=N/c1cc(Br)c(OC2Cc3cccc(C)c3C2)nc1C (stereo not drawn) [Q.200]
≥ 50%: all assays above

CCN(C)/C=N/c1cc(Br)c(OC(C)CCCc2ccccc2)nc1C (stereo not drawn) [Q.201]
≥ 50%: all assays above

CCN(C)/C=N/c1cc(Br)c(OC(C)c2cc(C)cc(C)c2)nc1C (stereo not drawn) [Q.203]
≥ 50%: all assays above

CCN(C)/C=N/c1cc(Br)c(OC(C)c2ccc(F)c(F)c2)nc1C (stereo not drawn) [Q.204]
≥ 50%: all assays above

CCN(C)/C=N/c1cc(Br)c(OCc2ccc(F)c(F)c2)nc1C [Q.206]
≥ 50%: all assays above

CCN(C)/C=N/c1cc(Br)c(OCc2ccsc2)nc1C [Q.208]
≥ 50%: all assays above

CCN(C)/C=N/c1cc(Br)c(OCc2ccc3ncccc3c2)nc1C [Q.209]
≥ 50%: all assays above

CCN(C)/C=N/c1cc(Br)c(OC2CCC(OC(=O)C(C)C)CC2)nc1C (stereo not drawn) [Q.211]
≥ 50%: all assays above

C=CCOC1CCC(Oc2nc(C)c(/N=C/N(C)CC)cc2Br)CC1 (stereo not drawn) [Q.212]
≥ 50%: all assays above

CCN(C)/C=N/c1cc(OC)c(OC(C)c2cc(F)cc(F)c2)nc1C (stereo not drawn) [Q.214]
≥ 50%: all assays above

CCN(C)/C=N/c1cc(C(F)F)c(OC(C)c2cc(F)cc(F)c2)nc1C (stereo not drawn) [Q.215]
≥ 50%: all assays above

CCN(C)/C=N/c1cc(C2CC2)c(OC(C)c2cc(F)cc(F)c2)nc1C (stereo not drawn) [Q.216]
≥ 50%: all assays above

CCN(C)/C=N/c1cc(Br)c(OC(C)Cc2cc(F)cc(F)c2)nc1C (stereo not drawn) [Q.217]
≥ 50%: all assays above

CCN(C)/C=N/c1cc(Br)c(OC(C)Cc2cccc(F)c2)nc1C (stereo not drawn) [Q.218]
≥ 50%: all assays above

CCN(C)/C=N/c1cc(Br)c(OC(C)Cc2cc(C)cc(C)c2)nc1C (stereo not drawn) [Q.219]
≥ 50%: all assays above

C=CCCC(C)Oc1nc(C)c(/N=C/N(C)CC)cc1Br (stereo not drawn) [Q.220]
≥ 50%: all assays above

CCN(C)/C=N/c1cc(Br)c(OC(C)Cc2cc(Cl)cc(Cl)c2)nc1C (stereo not drawn) [Q.221]
≥ 50%: all assays above

CCN(C)/C=N/c1cc(Br)c(OCCC2CC2)nc1C [Q.222]
≥ 50%: all assays above

CCN(C)/C=N/c1cc(Br)c(OCC(C)c2ccccc2)nc1C (stereo not drawn) [Q.223]
≥ 50%: all assays above

CCN(C)/C=N/c1cc(Br)c(OCC2CCc3ccccc3C2)nc1C (stereo not drawn) [Q.224]
≥ 50%: all assays above

CCN(C)/C=N/c1cc(Br)c(OC(C)C2CCc3ccccc3C2)nc1C (stereo not drawn) [Q.225]
≥ 50%: all assays above

CCN(C)/C=N/c1cc(Br)c(OCC2CCCc3ccccc32)nc1C (stereo not drawn) [Q.226]
≥ 50%: all assays above

CCN(C)/C=N/c1cc(Br)c(OC(C)C2CCCc3ccccc32)nc1C (stereo not drawn) [Q.227]
≥ 50%: all assays above

CCc1cc(/N=C/N(C)CC)c(C)nc1OC(C)c1cc(F)cc(F)c1 (stereo not drawn) [Q.228]
≥ 50%: all assays above

C#Cc1cc(/N=C/N(C)CC)c(C)nc1OC(C)c1cc(F)cc(F)c1 (stereo not drawn) [Q.229]
≥ 50%: all assays above
